Experimental data from patent US20250152758A1, “PROBE FOR NUCLEAR MEDICAL TESTING” (The University of Tokyo, priority 2022, published 2025).

Legend:
[1] = target: T1, GGT (Homo sapiens, UniProt P19440); experiment: Enzymatic reaction between gGlu-4^125I-FMA and GGT, HPLC with radiation detector; type: biochemical; conditions: 80 U/mL GGT, 37° C., 3.5 hours, radio-HPLC
T1 construct: purchased wako 307-50673
Method: The purified gGlu-4^125I-FMA was dissolved in DPBS(-) to prepare about 5 kBq/μL. The result of the radiation detector when 20 μL of DPBS(-) was added to 5 μL of this solution and the entire amount of 25 μL was injected into the analytical HPLC is shown in the upper left of FIG. 3. Here, the analysis conditions of HPLC are exactly the same as the conditions at the time of purification in FIG. 2.
For analysis of metabolites, 40 μL of a 100 U/mL GGT solution (final concentration: 80 U/mL) was added to 10 μL of the above gGlu-4^125I-FMA solution, and the mixture was stirred at 37° C. and 500 rpm for 3.5 hours using a shaker. The result of the radiation detector when a half amount 25 μL from this reaction liquid was injected for analysis is shown in the upper left of FIG. 3. The lower right is a result of extracting 254 nm with PDA when a cold preparation of 2-amino-5-iodobenzylalcohol obtained by producing azaquinone methide after gGlu-4^125I-FMA was metabolized by GGT, and reacting azaquinone methide with water that would be the main nucleophile in this enzymatic reaction experiment was analyzed under the same analysis conditions.

[2] = tested on: SHIN3 (high GGT activity) cells; experiment: Intracellular uptake test in cells with high GGT activity, with or without GGT inhibitor GGsTop; type: cell-based
Method: (§1) Intracellular uptake of gGlu-4^125I-FMA was evaluated using cells with high or low GGT activity and a GGT inhibitor, GGsTop, by the procedure shown in FIG. 4.
(§2) First, SHIN3 (high GGT activity) and SKOV3 (low GGT activity) cells were seeded in 12 well culture plates and incubated for 1 day. Next, the medium of each well was changed to fresh medium containing gGlu-4^125I-FMA (and GGsTop), and the cells were incubated for 6 hours. Thereafter, the medium was removed and the plates were washed three times with PBS(-). Then, the cells were collected, radioactivity from the cells was measured with a Y-counter, and the number of cells was counted.
(§3) Since there was almost no radioactivity in the third wash fraction and the radioactivity from the cell fraction was much higher than that, it is considered that the radioactivity from the cell fraction is derived from the nuclide retained in the cell.

[3] = tested on: SKOV3 (low GGT activity) cells; experiment: Intracellular uptake test in cells with low GGT activity; type: cell-based; conditions: SKOV3, 6 hours incubation, gamma counter
Method: as §1, §2, §3

[4] = tested on: A549 tumor (high GGT activity); experiment: Intratumoral administration to subcutaneous tumor model mouse, SPECT/CT imaging (high GGT tumor); type: in vivo; conditions: about 150 kBq intratumoral, images 30 minutes, 2 hours, 5 hours
Method: (§4) On the basis of the results of Example 2, a probe was intratumorally administered to a subcutaneous tumor model mouse, and SPECT/CT imaging was performed.
(§5) A model mouse was prepared in which A549 cells with high GGT activity were transplanted subcutaneously on the left side of the body, and H226 cells with low GGT activity were transplanted subcutaneously on the right side of the body. Into subcutaneous tumors of A549 (high GGT activity, left side) and H226 (low GGT activity, right side), gGlu-4^125I-FMA of about 150 kBq in 30 μL PBS(-) was directly administered. SPECT/CT images were acquired 30 minutes, 2 hours, and 5 hours after administration.

[5] = tested on: H226 tumor (low GGT activity); experiment: Intratumoral administration to subcutaneous tumor model mouse, SPECT/CT imaging (low GGT tumor); type: in vivo; conditions: about 150 kBq intratumoral, images 30 minutes, 2 hours, 5 hours
Method: as §4, §5

[6] = tested on: A549-luc-C8 cells with high GGT activity (peritoneal dissemination); experiment: Visualization of peritoneal metastasis by intraperitoneal administration, SPECT/CT and autoradiography; type: in vivo, mouse; conditions: for signals in the abdomen (SPECT/CT): 5 hours after administration
Method: Next, according to the procedure shown in the left figure of FIG. 7, peritoneal dissemination model mice were prepared, and gGlu-4^125I-FMA was intraperitoneally administered. First, A549-luc-C8 cells with high GGT activity were transplanted into the abdominal cavity of the mouse and bred for 1 week. Luciferin potassium was intraperitoneally administered, and tumor growth was confirmed by luminescence imaging using IVIS (right figure in FIG. 7). Next, gGlu-4^125I-FMA was intraperitoneally administered (to 3 MBq) to the peritoneal model mouse and a tumor-free mouse, and SPECT/CT imaging was performed by NanoSPECT/CT. […] They are shown as Maximum Intensity Projection (MIP) images.
In addition, the peritoneal dissemination model mouse in the left figure was dissected after 5 hours of imaging, and the intestines and mesentery were taken out and imaged by autoradiography (ARG) (FIG. 9). […] From this, it is considered that the signals scattered in the abdominal cavity in the SPECT/CT on the left of FIG. 8 correspond to the peritoneal dissemination.

T1 sequence (P19440 whole entry, species assumed): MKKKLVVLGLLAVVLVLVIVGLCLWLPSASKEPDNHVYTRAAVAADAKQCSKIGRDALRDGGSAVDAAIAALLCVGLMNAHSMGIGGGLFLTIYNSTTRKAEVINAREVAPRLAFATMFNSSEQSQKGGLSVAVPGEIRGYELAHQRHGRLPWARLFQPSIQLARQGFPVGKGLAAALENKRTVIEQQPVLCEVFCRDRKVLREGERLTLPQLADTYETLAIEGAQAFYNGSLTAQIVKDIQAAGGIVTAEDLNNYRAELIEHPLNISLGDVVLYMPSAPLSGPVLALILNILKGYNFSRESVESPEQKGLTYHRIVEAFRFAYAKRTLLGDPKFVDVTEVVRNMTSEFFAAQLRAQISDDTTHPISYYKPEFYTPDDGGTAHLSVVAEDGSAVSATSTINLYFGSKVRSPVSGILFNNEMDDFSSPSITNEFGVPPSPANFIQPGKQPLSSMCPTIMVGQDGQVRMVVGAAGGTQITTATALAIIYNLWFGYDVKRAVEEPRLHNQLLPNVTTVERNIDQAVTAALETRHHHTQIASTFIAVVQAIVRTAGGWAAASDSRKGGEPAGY

Structure (SMILES): N[C@@H](CCC(=O)Nc1ccc([125I])cc1CF)C(=O)O [gGlu-4^125I-FMA]
- metabolite formed on reaction with GGT [1]: converted to 2-amino-5-iodobenzylalcohol
- uptake rate without inhibitor compared with the case of adding an inhibitor ([2]; SHIN3, 6 hours incubation, GGsTop as inhibitor, gamma counter, standardized by number of cells): about 30 times
- retention of incorporated probe in the cell after wash operation ([2]; three washes with PBS(-)): remains in the cell at a certain ratio and withstands washout
- uptake rate [3]: suppressed to be low
- radioactivity in tumor (SPECT/CT) [4]: clearly remains
- radioactivity in tumor (SPECT/CT) [5]: rapidly attenuated
- clearance of probe from abdominal cavity (SPECT/CT) ([6]; i.p., after 30 minutes): almost disappeared from the abdominal cavity
- signals in the bladder (SPECT/CT) ([6]; i.p., after 30 minutes): many signals gathered in the bladder
- uptake in intestines and mesentery by autoradiography (ARG) ([6]; peritoneal dissemination model mouse dissected after 5 hours of imaging): uptake of radionuclides was observed in agreement with minute peritoneal dissemination
- signals in the abdomen (SPECT/CT) ([6]; peritoneal dissemination model mouse, i.p.): only scattered signals remained in the abdomen
- signals in the abdomen (SPECT/CT) ([6]; tumor-free mouse, i.p.): not observed
